Tested on: 485176-168-R4-J1-PDC spheroids with HUVEC/MSC, viability
Experiment: Anticancer human tumor 485176-168-R4-J1-PDC patient-derived pancreatic adenocarcinoma cell line growth inhibition [GQUAD]
Conditions: for IC50: curve of first compound; for viability, T/C: stronger effect = lower value
From the text: DNA G-quadruplex Stabilizer Agents in Combinations in Complex Spheroids
A high-throughput screen of multi-cell type tumor spheroids was designed to identify active combinations of DNA G-quadruplex stabilizer agents and targeted small molecules. Complex spheroids include a stromal component modeled by human endothelial cells (HUVEC) and fibroblasts modeled by human mesenchymal stem cells (MSCs). The concentration ranges selected for each drug and investigational agent were based upon clinically achievable concentrations if the clinical Cmax of the agent was known.
Compounds. The drugs and investigational agents: pidnarulex (CX-5461; NSC782164), APTO-253 (NSC789042), BRACO-19 (NSC847499), peposertib (NSC802822), ceralasertib (NSC780249), elimusertib (NSC800525), camonsertib (NSC841442), AZD-1390 (NSC803789), olaparib (NSC753686), talazoparib (NSC767125), ART-558 (NSC835418), sotorasib (NSC818433), MRTX-1133 (NSC836407), SN-38 (NSC673596), topotecan (NSC609699), etoposide (NSC141540), doxorubicin (NSC123127), gemcitabine (NSC613327), 5-fluorouracil (NSC19893), paclitaxel (NSC125973), vemurafenib (NSC761431), panobinostat (NSC761190), R-306465 (JNJ-16241199; NSC773264), adavosertib (NSC754352), TP-3654 (NSC805149), carboplatin (NSC241240), KSQ-4279 (NSC840948), and staurosporine (NSC755774) were obtained from the National Cancer Institute (NCI) Developmental Therapeutics Program Chemical Repository (34). The FDA-approved anticancer drug set is available from the NCI Developmental Therapeutics Program. […] The stock solutions were prepared in dimethyl sulfoxide (DMSO, Sigma-Aldrich, St. Louis, MO, cat. D2650) at 800-fold the tested concentration and stored at -70 degrees C prior to their use. All drugs and investigational agents were tested over a range starting from a high concentration at or near the clinical Cmax and decreasing in half-log increments. If the clinical Cmax for an agent had not been determined, the highest concentration tested was 10 microM.
2.3 Cell Culture. All cells were maintained in an incubator at 37 degrees C and 5% CO2 with 95% humidity. The PDC lines were cultured according to standard operating procedures established by the NCI PDMR. All PDCs were thawed and cultured in Matrigel-coated flasks prepared with a working solution of 1X Ham's F-12 nutrient mix, without supplementation (Invitrogen, cat. 11765054), 100 U/mL penicillin-streptomycin (Invitrogen, cat. 15140122), and 2.5% Matrigel (Corning Inc., cat. 354248) for the first three passages. The 857933-349-R-J2-PDC line was cultured in 6C/Colon 1B media, which includes advanced DMEM/F-12 (Thermo Fisher Scientific, cat. 12634028), 10 mM HEPES (Thermo Fisher Scientific, cat. 15630080), 1X GlutaMAX supplement (Thermo Fisher Scientific, cat. 35050061), 0.1 mg/mL primocin (InvivoGen, cat. ant-pm-2), 10% defined fetal bovine serum, heat inactivated (HyClone Laboratories Inc., cat. SH30070.03HI), 50% L-WRN conditioned media (ATCC, cat. CRL-3276), 1.25 mM N-Acetyl-L-cysteine (Sigma-Aldrich, cat. A9165), 10 mM nicotinamide (Sigma-Aldrich, cat. N0636), 1X B-27 supplement (Thermo Fisher Scientific, cat. 17504044), 1X N-2 supplement (Thermo Fisher Scientific, cat. 17502048), 10 microM Y-27632 dihydrochloride (Tocris Bioscience, cat. 1254), and 50 ng/mL human EGF recombinant protein (Thermo Fisher Scientific, cat. PHG0311). The 485176-168-R4-J1-PDC line was cultured in Panc media, which includes all 6C/Colon 1B media components plus 100 ng/mL human FGF-10 (Thermo Fisher Scientific, cat. 100-26), 500 nM SB-431542 (Selleckchem, cat. S1067), and gastrin (Tocris, cat. 3006).
[…]
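Further: spheroids exposed to compounds for seven days before readout.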
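Wherever viability, T/C is given: percent viability relative to DMSO vehicle control wells as 100%.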

CCCS(=O)(=O)Nc1ccc(F)c(C(=O)c2c[nH]c3ncc(-c4ccc(Cl)cc4)cc23)c1F + CN(C)c1ccc(Nc2c3ccc(NC(=O)CCN4CCCC4)cc3nc3cc(NC(=O)CCN4CCCC4)ccc23)cc1
IC50 (second compound 0.0316 µM): > 10 µM
IC50 (second compound 0.1 µM): > 10 µM
IC50 (second compound 0.316 µM): > 10 µM
IC50 (second compound 1 µM): > 10 µM
IC50 (second compound 3.16 µM): > 10 µM
IC50 (second compound 10 µM): 6.5 µM
viability, T/C (second compound 0.0316 µM, first compound 0.0316 µM): 87.4%
viability, T/C (second compound 0.0316 µM, first compound 0.1 µM): 81.9%
viability, T/C (second compound 0.0316 µM, first compound 0.316 µM): 91.6%
viability, T/C (second compound 0.0316 µM, first compound 1 µM): 86.4%
viability, T/C (second compound 0.0316 µM, first compound 3.16 µM): 86.3%
viability, T/C (second compound 0.0316 µM, first compound 10 µM): 70.1%
viability, T/C (second compound 0.1 µM, first compound 0.0316 µM): 100%
viability, T/C (second compound 0.1 µM, first compound 0.1 µM): 99%
viability, T/C (second compound 0.1 µM, first compound 0.316 µM): 83.2%
viability, T/C (second compound 0.1 µM, first compound 1 µM): 73.6%
viability, T/C (second compound 0.1 µM, first compound 3.16 µM): 94.3%
viability, T/C (second compound 0.1 µM, first compound 10 µM): 60%
viability, T/C (second compound 0.316 µM, first compound 0.0316 µM): 97.5%
viability, T/C (second compound 0.316 µM, first compound 0.1 µM): 95%
viability, T/C (second compound 0.316 µM, first compound 0.316 µM): 91.1%
viability, T/C (second compound 0.316 µM, first compound 1 µM): 77.2%
viability, T/C (second compound 0.316 µM, first compound 3.16 µM): 90.8%
viability, T/C (second compound 0.316 µM, first compound 10 µM): 63.7%
viability, T/C (second compound 1 µM, first compound 0.0316 µM): 76.3%
viability, T/C (second compound 1 µM, first compound 0.1 µM): 86.8%
viability, T/C (second compound 1 µM, first compound 0.316 µM): 105%
viability, T/C (second compound 1 µM, first compound 1 µM): 94.8%
viability, T/C (second compound 1 µM, first compound 3.16 µM): 82.5%
viability, T/C (second compound 1 µM, first compound 10 µM): 65.3%
viability, T/C (second compound 3.16 µM, first compound 0.0316 µM): 91.8%
viability, T/C (second compound 3.16 µM, first compound 0.1 µM): 87.6%
viability, T/C (second compound 3.16 µM, first compound 0.316 µM): 78.8%
viability, T/C (second compound 3.16 µM, first compound 1 µM): 81.3%
viability, T/C (second compound 3.16 µM, first compound 3.16 µM): 81.2%
viability, T/C (second compound 3.16 µM, first compound 10 µM): 51.3%
viability, T/C (second compound 10 µM, first compound 0.0316 µM): 76.6%
viability, T/C (second compound 10 µM, first compound 0.1 µM): 83.7%
viability, T/C (second compound 10 µM, first compound 0.316 µM): 65.4%
viability, T/C (second compound 10 µM, first compound 1 µM): 70.6%
viability, T/C (second compound 10 µM, first compound 3.16 µM): 63.3%
viability, T/C (second compound 10 µM, first compound 10 µM): 42.7%

Reference: PubChem BioAssay AID2060509 (Molecular Pharmacology Branch, DTP, NCI, 2025)
